Values after ≈ are worked out from the molar mass of the structure shown. Each block holds one compound with its values, some of them ahead of it.
Tests used:
[1] = Inhibition of rat intestinal isomaltase preincubated for 10 mins followed by substrate addition
[2] = Inhibition of baker's yeast sucrase preincubated for 10 mins followed by substrate addition; set-up: species or system Saccharomyces cerevisiae
[3] = Inhibition of rat intestinal gluco-amylase preincubated for 10 mins followed by substrate addition
[4] = Inhibition of rat intestinal trehalase preincubated for 10 mins followed by substrate addition
[5] = Inhibition of Aspergillus niger maltase preincubated for 10 mins followed by substrate addition
[6] = Inhibition of rat intestinal maltase preincubated for 10 mins followed by substrate addition
[7] = Inhibition of rat intestinal lactase preincubated for 10 mins followed by substrate addition
[8] = Inhibition of rat intestinal sucrase preincubated for 10 mins followed by substrate addition
[9] = Cytotoxicity against MDCK cells; type: toxicity, cell-based, Canis lupus familiaris; conditions: dog
[10] = Inhibition of porcine alpha-amylase using starch as substrate preincubated for 10 mins followed by substrate addition and measured after 10 mins by microplate reader analysis; set-up: species or system Sus scrofa
[11] = Inhibition of yeast alpha-glucosidase using p-nitrophenyl-alpha-D-glucopyranoside as substrate preincubated for 5 mins followed by substrate addition measured after 5 mins by microplate reader analysis; set-up: species or system Saccharomyces cerevisiae
Alpha amylase = biological target: T1, Alpha amylase (Homo sapiens, UniProt P0DUB6); experiment: Inhibition of human salivary alpha-amylase using starch as substrate preincubated for 5 mins followed by substrate addition for 8 mins and incubated with iodide potassium for another 5 mins; set-up: species or system Saliva
T1 sequence (P0DUB6 whole entry): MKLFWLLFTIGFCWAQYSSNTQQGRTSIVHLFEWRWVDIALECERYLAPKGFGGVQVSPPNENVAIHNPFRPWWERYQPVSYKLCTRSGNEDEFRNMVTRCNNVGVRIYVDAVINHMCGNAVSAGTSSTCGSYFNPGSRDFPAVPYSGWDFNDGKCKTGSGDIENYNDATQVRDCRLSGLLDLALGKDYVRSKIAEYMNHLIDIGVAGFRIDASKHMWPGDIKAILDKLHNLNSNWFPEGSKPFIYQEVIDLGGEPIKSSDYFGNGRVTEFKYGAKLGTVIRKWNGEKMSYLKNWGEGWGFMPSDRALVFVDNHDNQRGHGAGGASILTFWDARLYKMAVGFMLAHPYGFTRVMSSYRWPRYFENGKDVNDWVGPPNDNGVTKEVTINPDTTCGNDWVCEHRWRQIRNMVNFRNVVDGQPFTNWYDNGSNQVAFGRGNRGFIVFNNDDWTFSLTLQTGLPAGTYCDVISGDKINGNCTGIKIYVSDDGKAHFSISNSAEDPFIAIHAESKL

[12] = Inhibition of mammalian alpha-amylase using starch as substrate; set-up: species or system Mammalia

Structure (SMILES): CC1(C)CCC[C@]2(C)c3cc(O)c(O)cc3C(=O)C[C@@H]12
- IC50 [1]: 0.85 µM
- IC50 [2]: 11 µM
- IC50 [3]: 1.6 µM
- IC50 [4]: 30 µM
- IC50 [5]: 14 µM
- IC50 [6]: 12 µM
- IC50 [7]: 20 µM
- IC50 [8]: 6.8 µM

Structure (SMILES): C/C=C/Oc1cc(C=O)ccc1O
- IC50 [9]: > 600 µM

Structure (SMILES): C=C1CC[C@@H]2[C@](C)(CO)[C@H](O)CC[C@@]2(C)[C@@H]1C/C=C1/C(=O)OC[C@H]1O [ANDROGRAPHOLIDE]
- IC50 [10]: 11 mg/mL (≈ 31.4 mM)
- IC50 [11]: 11 mg/mL (≈ 31.4 mM)

Now from value to compound:

- IC50 (Alpha amylase): 600 µM
Structure (SMILES): COC(=O)/C=C/c1ccc(OC/C=C(\C)CO)cc1

- IC50 [12]: 120 µM
Structure (SMILES): CC(C)=CCC/C(C)=C/C=O [CITRAL]

Reference: ChEMBL document CHEMBL5126544, “Recent results from non-basic glycosidase inhibitors: How structural diversity can inform general strategies for improving inhibition potency” (Eur J Med Chem, 2022)
